Assay results from patent US20060287397A1, “Dl-hydroxy-alkyl-phenylamides having anticonvulsive activity” (priority 2002, published 2006).
Read-outs that look alike come from different tables or passages of the source.

Columns and labels:
[1] = tested on: Seizures induced by pentylenetetrazol (PTZ) in mice; test: Pentylenetetrazol test (anticonvulsant activity); type: in vivo; settings: for ED50: Mus musculus, ip, 0.5 h; for ED50 / ED50 PTZ: male CF-1 mice, compound i.p., pentylenetetrazol 100 mg kg^−1 i.p. 30 min after, end point suppression of clonic seizures and death; for anticonvulsant activity relative to that of the non-halogenated compounds: pentylenetetrazol test, mice, from Table 1
Method: Male albino mice CF-1 strain (National Institute of Virology, Mexico City) weighing 18-25 g were housed in groups of 20, at room temperature (20-24° C.), with tap water and food (pellet type Blue Bonnet) ad libitum, with a 12-h light-dark cycle. DL-2-hydroxy-2-phenyl butyramide, DL-3-hydroxy-3-phenyl pentanamide, DL-4-hydroxy-4-phenyl hexanamide and pentylenetetrazol were dissolved in water and compounds 1-10 were dissolved in a 30% polyethyleneglycol-400 solution. All the compounds used were administered intraperitoneally (i.p.). The convulsant dose of pentylenetetrazol inducing seizures and death in 100% of mice (CD100) was determined and used in the test. CD100 value obtained was 100 mg kg^1. To determine the dose-response curves five separate groups of 10-20 mice were dosed i.p. with the test compounds, and pentylenetetrazol, 100 mg kg^−1, i.p., was administered at 30 min after. The suppression of clonic seizures and death was considered the end point of the test. […] The ED50 and 95% confidence intervals were calculated by the method of Litchfield and Wilcoxon (Table 1). See Litchfield et al., J. Pharmacol. Exp. Ther. 96, 99 (1949).

[2] = tested on: seizures provoked by pentylenetetrazole, bicuculline, 4-aminopyridine, thiosemicarbazide and maximal electroshock; settings: mice; cited from earlier work
[3] = tested on: hippocampal kindling; settings: cats; cited from earlier work
[4] = tested on: hippocampal kindling; settings: rats; cited from earlier work
[5] = tested on: γ-aminobutyric acid withdrawal syndrome; settings: rats; cited from earlier work
[6] = tested on: focal spike activity; settings: genetic absence epilepsy rats of the Strasbourg model; cited from earlier work

SMILES	ED50 [1] [mg/kg]	anticonvulsant activity relative to that of the non-halogenated compounds [1]	further results
CCC(O)(CC(N)=O)c1ccc(Cl)c(Cl)c1 (racemic) [Compound 7, DL-3-hydroxy-3-(3′,4′-dichlorophenyl)pentanamide]	16	twice, threefold or more than fourfold	–
CCC(O)(C(N)=O)c1ccc(C(F)(F)F)cc1 (racemic) [Compound 2, DL-2-hydroxy-2-(4′-trifluoromethylphenyl)butyramide]	23	twice, threefold or more than fourfold	–
CCC(O)(C(N)=O)c1cccc(Br)c1 (racemic) [Compound 4, DL-2-hydroxy-2-(3′-bromophenyl)butyramide]	8	more than fivefold, sixfold or sevenfold	–
CCC(O)(CCC(N)=O)c1ccccc1 (racemic) [DL-4-hydroxy-4-Phenylhexanamide, DL-4-hydroxy-4-phenylhexanamide]	–	–	protection against seizures [2]: protect mice against seizures; ED50 PTZ [1]: 55 mgkg^−1; protection against hippocampal kindling [3]: protect cats and rats against hippocampal kindling; protection against hippocampal kindling [4]: protect cats and rats against hippocampal kindling
CCC(O)(C(N)=O)c1ccccc1 (racemic) [DL-2-hydroxy-2-Phenyl butyramide, DL-2-hydroxy-2-phenylbutyramide]	–	–	protection against seizures [2]: protect mice against seizures; ED50 PTZ [1]: 58 mgkg^−1; protection against hippocampal kindling [3]: protect cats and rats against hippocampal kindling; protection against hippocampal kindling [4]: protect cats and rats against hippocampal kindling
CCC(O)(CC(N)=O)c1ccc(Br)cc1 (racemic) [Compound 8, DL-3-hydroxy-3-(4′-bromophenyl) pentanamide]	8	more than fivefold, sixfold or sevenfold	–
CCC(O)(C(N)=O)c1cc(C(F)(F)F)cc(C(F)(F)F)c1 (racemic) [Compound 1, DL-2-hydroxy-2-(3′,5′-bistrifluoromethylphenyl) butyramide]	10	more than fivefold, sixfold or sevenfold	–
CCC(O)(C(N)=O)c1cccc([N+](=O)[O-])c1 (racemic) [Compound 6, DL-2-hydroxy-2-(3′-nitrophenyl)butyramide]	36	twice, threefold or more than fourfold	–
CCC(O)(CCC(N)=O)c1ccc(Cl)c(Cl)c1 (racemic) [Compound 9, DL-4-hydroxy-4-(3′,4′-dichlorophenyl)hexanamide]	12	twice, threefold or more than fourfold	–
CCC(O)(C(N)=O)c1ccc(Br)cc1 (racemic) [Compound 5, DL-2-hydroxy-2-(4′-bromophenyl)butyramide]	8	more than fivefold, sixfold or sevenfold	–
CCC(O)(CC(N)=O)c1ccccc1 (racemic) [DL-3-hydroxy-3-Phenyl pentanamide, DL-3-hydroxy-3-phenylpentanamide]	–	–	protection against seizures [2]: protect mice against seizures; protection against γ-aminobutyric acid withdrawal syndrome [5]: protects rats against the γ-aminobutyric acid withdrawal syndrome; ED50 PTZ [1]: 49 mgkg^−1; protection against hippocampal kindling [3]: protect cats and rats against hippocampal kindling; protection against hippocampal kindling [4]: protect cats and rats against hippocampal kindling; focal spike activity [6]: significant decrease of focal spike activity
CCC(O)(C(N)=O)c1ccc(Cl)c(Cl)c1 (racemic) [Compound 3, DL-2-hydroxy-2-(3′,4′-dichlorophenyl)butyramide]	10	more than fivefold, sixfold or sevenfold	–
CCC(O)(CCC(N)=O)c1ccc(Br)cc1 (racemic) [Compound 10, DL-4-hydroxy-4-(4′-bromophenyl)hexanamide]	9	more than fivefold, sixfold or sevenfold	–
